These results are taken from US20210002231A1 (Centre National de la Recherche Scientifique, priority 2018, published 2021).

Residues, ends and D or L forms follow the SMILES beside them.

For assay [1], the target named is T1, NPFF2R (Homo sapiens, UniProt Q9Y5X5). Description: [35S]-GTPγS binding assay. Type of assay: biochemical. Details: expressed in transfected cells. As to the method:
(§1) Stimulation by endogenous RF-amide peptides or test compounds for [^35S]-GTPγS binding to membranes from CHO cells expressing human NPFF1R or NPFF2R, were examined as reported. 1.6. Glo-Sensor cAMP Assay cAMP accumulation assay was essentially done as described with the following modifications: HEK293 cells stably expressing cAMP Glosensor-20F were used, with or without additional stable expression of each individual opioid receptor or NPFF1R. The cAMP responses were measured in presence of D-luciferin (1 mM).
A general note: Binding of GTPγS marks nucleotide exchange on a G protein.

The target of assay [2] is T2, human NPFF1R (Homo sapiens, UniProt Q9GZQ6). Description: [35S]-GTPγS binding assay. Type of assay: biochemical. Details: expressed in transfected cells. Conditions: for Emax: relative to RFRP3. As to the method:
as §1

Assay [3] has as its target T3, human MOPr (Homo sapiens, UniProt P35372). Kind of assay: Radioligand competition binding with [3H]-diprenorphine. Details: expressed in transfected cells; HEK293-Glo20F cells (cAMP).
The target of assay [4] is T1, NPFF2R. Kind of assay: Radioligand competition binding with [125I]-1-DMe-NPFF. Details: expressed in transfected cells; HEK293-Glo20F cells (cAMP). For orientation: In a radioligand displacement assay an active substance lowers the binding of a labelled ligand.
Assay [5] deals with T3, human MOPr. Kind of assay: cell-based. It counts as cell-based. Further details: expressed in transfected cells; HEK293-Glo20F cells (cAMP). Particulars: for EC50: Table 3a, HEK293-Glo20F-hMOPr cells, read-out: MOPr (cAMP) EC50; for Emax: read-out: MOPr (cAMP) Emax. As to the method: as §1
For assay [6], the target named is T2, human NPFF1R. Kind of assay: Radioligand competition binding with [125I]-1-DMe-NPFF. Further details: expressed in transfected cells; HEK293-Glo20F cells (cAMP).
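Wherever MOPr (cAMP) Emax is given: Emax relative to DAMGO as 100%.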

T2 sequence (Q9GZQ6 whole entry): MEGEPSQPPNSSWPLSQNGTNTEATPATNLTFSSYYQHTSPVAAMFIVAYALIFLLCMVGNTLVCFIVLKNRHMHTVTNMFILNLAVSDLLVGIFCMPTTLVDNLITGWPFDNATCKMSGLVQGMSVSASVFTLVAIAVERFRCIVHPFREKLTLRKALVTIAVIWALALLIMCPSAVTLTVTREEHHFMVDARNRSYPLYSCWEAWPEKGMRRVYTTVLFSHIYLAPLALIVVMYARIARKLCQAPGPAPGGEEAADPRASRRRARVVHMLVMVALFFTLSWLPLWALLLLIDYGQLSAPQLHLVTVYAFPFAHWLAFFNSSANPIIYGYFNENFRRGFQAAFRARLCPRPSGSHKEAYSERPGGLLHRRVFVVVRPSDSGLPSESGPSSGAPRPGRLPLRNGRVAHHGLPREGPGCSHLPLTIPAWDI
T1 sequence (Q9Y5X5 whole entry): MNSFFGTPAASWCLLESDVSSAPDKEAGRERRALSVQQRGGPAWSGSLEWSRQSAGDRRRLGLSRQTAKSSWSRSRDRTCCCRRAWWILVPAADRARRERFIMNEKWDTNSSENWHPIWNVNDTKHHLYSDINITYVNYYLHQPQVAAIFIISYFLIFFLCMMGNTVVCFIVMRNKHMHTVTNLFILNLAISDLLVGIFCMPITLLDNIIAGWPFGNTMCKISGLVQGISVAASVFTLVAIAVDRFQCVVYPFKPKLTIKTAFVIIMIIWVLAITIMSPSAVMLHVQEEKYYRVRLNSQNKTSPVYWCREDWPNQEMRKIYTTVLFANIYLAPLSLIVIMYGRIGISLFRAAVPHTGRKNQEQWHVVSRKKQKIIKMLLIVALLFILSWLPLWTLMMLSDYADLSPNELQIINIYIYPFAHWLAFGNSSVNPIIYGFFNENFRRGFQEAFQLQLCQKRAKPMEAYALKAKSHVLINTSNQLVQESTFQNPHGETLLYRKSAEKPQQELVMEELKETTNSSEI
T3 sequence (P35372 whole entry): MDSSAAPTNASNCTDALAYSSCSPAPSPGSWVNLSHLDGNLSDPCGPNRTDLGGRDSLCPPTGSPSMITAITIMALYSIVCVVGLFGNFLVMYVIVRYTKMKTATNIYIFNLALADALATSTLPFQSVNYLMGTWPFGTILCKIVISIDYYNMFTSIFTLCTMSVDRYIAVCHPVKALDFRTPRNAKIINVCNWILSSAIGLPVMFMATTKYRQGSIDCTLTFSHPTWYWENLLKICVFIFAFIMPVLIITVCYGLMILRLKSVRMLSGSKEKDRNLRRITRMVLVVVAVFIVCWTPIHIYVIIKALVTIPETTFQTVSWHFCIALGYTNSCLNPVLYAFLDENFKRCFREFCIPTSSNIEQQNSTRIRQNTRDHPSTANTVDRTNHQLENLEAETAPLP

Broadly, the EC50 is the midpoint of the concentration-response curve. As usually defined, the Emax is the maximal effect, on the per cent scale that the assay sets. As usually defined, the Ki is the dissociation constant of the complex between target and ligand, obtained from inhibition or displacement. A lower Ki goes with a stronger hold on the target. Take `Cc1cc(O)cc(C)c1C[C@H](N)C(=O)N[C@H](CCCNC(=N)N)C(=O)N[C@H]1Cc2ccccc2CN(CCC(=O)N[C@@H](CCCN2CCCCC2)C(=O)N[C@@H](Cc2ccccc2)C(N)=O)C1=O` [KGFF08, H-Dmt-D-Arg-Aba-β-Ala-Apa-Phe-NH2]: the values for the EC50 on NPFF2R [1] and on human MOPr [5] were 574 ± 129 nM and 9.9 ± 2 nM, respectively. The Emax is 97 ± 2% at NPFF2R [1], 23 ± 1% on human NPFF1R [2] and 102 ± 3% at human MOPr [5]. In addition, the Ki at human MOPr [3] is 0.94 ± 0.19 nM; at NPFF2R [4], 3.9 ± 0.1 nM.

For `CNC(=O)[C@H](Cc1ccccc1)NC(=O)[C@@H](CCCNC(=N)N)NC(=O)[C@@H](N)Cc1c(C)cc(O)cc1C` [KGFF13, H-Dmt-D-Arg-Phe-NHMe] (HELM PEPTIDE1{[Cc1cc(O)cc(C)c1C[C@H](N)C(=O)[*:2]].[dR].F.[CN[*:1]]}$$$$V2.0), the EC50 at NPFF2R [1] is over 10000 nM; on human NPFF1R [2], over 10000 nM; at human MOPr [5], 1 ± 0.4 nM. The values for the Emax at NPFF2R [1], on human NPFF1R [2] and on human MOPr [5] were 68 ± 8%, 39 ± 2% and 97 ± 2%, respectively. For the same molecule, the inhibitory constant (Ki) on human MOPr [3] was 0.11 ± 0.05 nM; at human NPFF1R [6] it was 147 ± 16 nM; on NPFF2R [4], 206 ± 47 nM.

With `Cc1cc(O)cc(C)c1C[C@H](N)C(=O)N[C@H](CCCNC(=N)N)C(=O)N[C@H]1Cc2ccccc2CN(CC(=O)N[C@@H](CCCNC(=N)N)C(=O)N[C@@H](Cc2ccccc2)C(N)=O)C1=O` [KGFF01, H-Dmt-D-Arg-Aba-Gly-Arg-Phe-NH2], the EC50 turned out to be 128 ± 23 nM at NPFF2R [1], 155 ± 25 nM on human NPFF1R [2] and 2.4 ± 1 nM at human MOPr [5]. In addition, the Emax amounted to 95 ± 6% at NPFF2R [1], 44 ± 8% on human NPFF1R [2] and 101 ± 7% on human MOPr [5]. Moreover, the Ki stood at 0.59 ± 0.21 nM on human MOPr [3], 57 ± 10 nM on human NPFF1R [6] and 1.2 ± 0.5 nM at NPFF2R [4].

For `Cc1cc(O)cc(C)c1C[C@H](N)C(=O)N[C@@H](CCCN1CCC(Cc2ccccc2)CC1)C(=O)N[C@@H](Cc1ccccc1)C(N)=O` [KGFF11, H-Dmt-Bpa-Phe-NH2], the Ki on human MOPr [3] was over 10000 nM; at human NPFF1R [6] it was 2720 nM; on NPFF2R [4], 406 ± 95 nM. Besides, the EC50 at human MOPr [5] is over 10000 nM.

Turning to `Cc1cc(O)cc(C)c1C[C@H](N)C(=O)N[C@@H](CCCNC(=N)N)C(=O)N[C@@H](Cc1ccccc1)C(N)=O` [KGFF06, H-Dmt-Arg-Phe-NH2] (HELM PEPTIDE1{[Cc1cc(O)cc(C)c1C[C@H](N)C(=O)[*:2]].R.F.[am]}$$$$V2.0), the results for the Ki on human MOPr [3], on human NPFF1R [6] and on NPFF2R [4] were 46 ± 22 nM, 147 ± 20 nM and 15.9 ± 1.8 nM, respectively. Also, on human MOPr [5], the EC50 is 2300 nM.

For the molecule `Cc1cc(O)cc(C)c1C[C@H](N)C(=O)N[C@H](CCCNC(=N)N)C(=O)N[C@@H](Cc1ccccc1)C(=O)N[C@@H](CCCN)C(=O)N[C@@H](Cc1ccccc1)C(N)=O` [KGFF05, H-Dmt-D-Arg-Phe-Orn-Phe-NH2] (HELM PEPTIDE1{[Cc1cc(O)cc(C)c1C[C@H](N)C(=O)[*:2]].[dR].F.[Orn].F.[am]}$$$$V2.0), the Ki on human MOPr [3] was 3.2 ± 1.1 nM; on human NPFF1R [6], 3100 nM; on NPFF2R [4] it was 360 ± 50 nM. For the same molecule, at human MOPr [5], the EC50 came out at 59.3 ± 24.5 nM. On human MOPr [5], the Emax was 94 ± 2%.

Regarding `Cc1cc(O)cc(C)c1C[C@H](N)C(=O)N[C@H](CCCNC(=N)N)C(=O)N[C@H]1Cc2ccccc2CN(CC(=O)N[C@@H](CCCNC(=N)N)C(=O)N[C@@H](Cc2ccccc2)C(=O)O)C1=O` [KGFF02, H-Dmt-D-Arg-Aba-Gly-Arg-Phe-OH], the results for the Ki on human MOPr [3], on human NPFF1R [6] and at NPFF2R [4] were 0.59 ± 0.15 nM, 2540 nM and 251 ± 25 nM, respectively. Also, the EC50 on human MOPr [5] stood at 1.5 ± 0.7 nM. Also, the Emax at human MOPr [5] came to 89 ± 2%.

As for `Cc1cc(O)cc(C)c1C[C@H](N)C(=O)N[C@@H](CCCN1CCCCC1)C(=O)N[C@@H](Cc1ccccc1)C(N)=O` [KGFF10, H-Dmt-Apa-Phe-NH2], the results for the Ki at human MOPr [3], at human NPFF1R [6] and at NPFF2R [4] were 68 ± 48 nM, over 10000 nM and 2100 nM, respectively. Further, at human MOPr [5], the EC50 is 598 ± 35 nM. Also, the Emax on human MOPr [5] is 91 ± 10%.
